The text below walks through data of patent EP0591583B1, “Benzo (f) quinolinones as 5-alpha-reductase inhibitors” (ELI LILLY AND COMPANY, priority 1992, dated 1994).

The target of one assay is T1, 5α-reductase (Homo sapiens, UniProt P18405).
T1 construct: host or cells: Hs68 human genital skin fibroblasts
T1 sequence (P18405 1-259): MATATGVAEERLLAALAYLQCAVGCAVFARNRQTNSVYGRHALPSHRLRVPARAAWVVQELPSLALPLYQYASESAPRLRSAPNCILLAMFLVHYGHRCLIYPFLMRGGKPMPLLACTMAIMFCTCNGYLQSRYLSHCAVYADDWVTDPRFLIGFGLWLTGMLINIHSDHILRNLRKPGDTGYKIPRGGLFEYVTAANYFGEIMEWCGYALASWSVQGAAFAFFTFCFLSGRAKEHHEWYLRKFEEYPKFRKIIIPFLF
Nature of the assay: 5α-Reductase activity in Hs68 human genital skin fibroblasts (conversion of labeled testosterone, TLC analysis). As to conditions: Hs68. The assay is classed as cell-based. The procedure:
Cell Culture: 5α-Reductase activity was measured using Hs68 human genital skin fibroblasts which were originally purchased from the American Type Culture Collection (Rockville, MD). The cells were grown in Dulbecco's Modified Eagle's Medium (DMEM) plus 10% stripped fetal bovine serum which was supplemented with amphotericin B ([…]) and gentamicin ([…]) (GIBCO, Grand Island, NY). The serum was stripped of endogenous steroids by incubation with dextran-coated charcoal prior to its addition to the media. The cells were maintained at 37°C in an atmosphere of 95% air, 5% CO2 and were passaged every 7-10 days by exposure to a trypsin-EDTA solution (0.025% trypsin, 0.265 mM EDTA). Prior to the assay the Hs68 cells were harvested and plated in Falcon 6-well plates (Becton Dickinson Labware, Lincoln Park, NJ) at a density of 6 x 10^4 cells per well. The cells were allowed to grow for 4-5 days or until they reached approximately 80% confluence.
Assay Method I: The substrate was prepared by dissolving unlabeled testosterone (Sigma Chemical Co., St. Louis, MO) in absolute ethanol followed by the addition of [7-^3H (N)]-testosterone (23.3 Ci/mmole, New England Nuclear, Boston, MA). The steroid solution was taken to dryness under a stream of nitrogen and then reconstituted in media.
Assay Method II: The substrate used for this method was [^14C]-testosterone (50 mCi/mmol) (New England Nuclear, Boston, MA). An aliquot of the substrate was taken to dryness under a stream of nitrogen. After the addition of 30 µl of ethanol, the testosterone was dissolved in an appropriate volume of media.
Sample Preparation: The test compounds were brought up in absolute ethanol in order to achieve the desired concentration. Subsequent dilutions of the test compounds with media were performed by the Biomek 1000 Automated Laboratory Workstation (Beckman Instruments, Palo Alto, CA). The existing media in the sample wells was aspirated and replaced with fresh media. Test compound was then added to the wells followed by the addition of 0.5 ml of substrate. The volume of the incubation mixture was maintained at 2.0 ml. The final substrate concentration was 12 µM. The concentration of the test compounds ranged from 0.001-150 µM. An additional three wells (background) containing media and substrate but no cells were also included to account for the non-enzymatic metabolism of the substrate. The plates were returned to the incubator and incubated for four hours.
At the end of the incubation the media was collected and transferred to an extraction tube containing 5 ml of toluene-ethanol (9:1), to which has been added 20-250 µg each of unlabeled carrier steroids (estriol, estradiol, estrone, 5α-androstan-3α,17β-diol, 5α-androstan-3β,17β-diol, 4-androstene-3,17-dione, 5α-androstan-3,17-dione, testosterone, and 5α-dihydrotestosterone) (Steraloids, Inc., Wilton, NH). In the case of Assay Method I the extraction tube also contained 1,000 and 10,000 dpm of [4-^14C]-dihydrotestosterone (50-60 mCi/mmol) and [4-^14C]-testosterone (50 mCi/mmol) (New England Nuclear, Boston, MA), respectively. The [^14C]-steroids were included as recovery standards to quantify procedural losses. A small amount of NaCl was also added to the extraction tubes to prevent foaming. The samples were vortexed for approximately 30 seconds and then centrifuged for 10 minutes at 500 x g. The organic phase was collected and the samples taken to dryness, redissolved in dichloromethane-methanol (9:1) and were analyzed by thin layer chromatography using one of the methods described below.
Chromatography Method I (two-dimensional): The extracted samples were appled to silica gel 60F254, 0.25 mm thick, thin layer chromatography plates (EM Science, Cincinnati, OH). The plates were developed in the first dimension with a solvent system containing dichloromethane-ethyl acetate-methanol-acetic acid (160:38:1.5:0.5, Mallinckrodt Inc., Paris, KY).
The term inhibition denotes the share of the control response that was lost under treatment. In turn, `CN1C(=O)CC[C@@H]2c3ccc(Cl)cc3CC[C@H]21` (racemic) [Example 6, trans-dl-8-chloro-4-methyl-1,2,3,4,4a,5,6,10b-octahydrobenzo[f]quinolin-3-one] had an inhibition at 1 µM of 100%.

Still in this assay, the particulars now being: Hs68, test compound 0.316 µM; Hs68 cells; substrate testosterone 12 µM; incubated four hours; read-out: % Inhibition.
With `CN1C(=O)CC[C@@H]2c3ccc(I)cc3CC[C@H]21` (racemic) [Example 3, trans-dl-8-iodo-4-methyl-1,2,3,4,4a,5,6,10b-octahydrobenzo[f]-quinolin-3-one], the inhibition at 0.316 µM amounted to 100%.

Turning to `O=C1CC[C@@H]2c3cc(Cl)c(Cl)cc3CC[C@H]2N1` (racemic) [Example 4, trans-dl-8,9-dichloro-1,2,3,4,4a,5,6,10b-octahydrobenzo[f]quinolin-3-one], the inhibition at 0.316 µM is 82.1%.

With `CCOC(=O)C=Cc1ccc2c(c1)CCC1C2CCC(=O)N1C` (racemic) [Example 16, trans-dl-8-ethoxycarbonylethenediyl-4-methyl-1,2,3,4,4a,5,6,10b-octahydrobenzo[f]quinolin-3-one], the inhibition at 0.316 µM came to 80%.

For `CCOC(=O)CCc1ccc2c(c1)CCC1C2CCC(=O)N1C` (racemic) [Example 22, trans-dl-8-ethoxycarbonylethanediyl-4-methyl-1,2,3,4,4a,5,6,10b-octahydrobenzo[f]quinolin-3-one], the inhibition at 0.316 µM was 40.7%.

On to `COC(=O)C=Cc1ccc2c(c1)CCC1C2CCC(=O)N1C` (racemic) [Example 23, trans-dl-8-methoxycarbonylethenediyl-4-methyl-1,2,3,4,4a,5,6,10b-octahydrobenzo[f]quinolin-3-one], for which the inhibition at 0.316 µM amounted to 76.5%.

In the case of `CN1C(=O)CCC2c3ccc(C=CC(=O)O)cc3CCC21` (racemic) [Example 24, trans-dl-8-carboxyethenediyl-4-methyl-1,2,3,4,4a,5,6,10b-octahydrobenzo[f]quinolin-3-one], the inhibition at 0.316 µM came out at 4.96%.

For the compound `CN1C(=O)CCC2c3ccc(C=CC(=O)NC(C)(C)C)cc3CCC21` (racemic) [Example 25, trans-dl-8-t-butylaminocarbonylethenediyl-4-methyl-1,2,3,4,4a,5,6,10b-octahydrobenzo[f]quinolin-3-one], the inhibition at 0.316 µM came to 35.9%.

Turning to `CC1(C)CC2NC(=O)CCC2c2ccc(Br)cc21` (racemic) [Example 27, trans-dl-8-bromo-6,6-dimethyl-1,2,3,4,4a,5,6,10b-octahydrobenzo[f]quinolin-3-one], the inhibition at 0.316 µM is 44.7%.

Still in this assay, the particulars now being: Hs68, test compound 1.00 µM; Hs68 cells; substrate testosterone 12 µM; incubated four hours.
`CN1C(=O)CC[C@@H]2c3ccc(Br)cc3CC[C@H]21` (racemic) [Example 1A, trans-dl-8-bromo-4-methyl-1,2,3,4,4a,5,6,10b-octahydrobenzo[f]quinolin-3-one]: the inhibition at 1 µM was determined as 98%.

The compound `CN1C(=O)CC[C@@H]2c3ccc(Br)cc3CC[C@@H]21` (racemic) [Example 1B, cis-dl-8-bromo-4-methyl-1,2,3,4,4a,5,6,10b-octahydrobenzo[f]quinolin-3-one] came in with an inhibition at 1 µM of 92.7%.

Regarding `CN1C(=O)CC[C@@H]2c3ccc(Cl)cc3CC[C@@H]21` (racemic) [Example 7, cis-dl-8-chloro-4-methyl-1,2,3,4,4a,5,6,10b-octahydrobenzo[f]quinolin-3-one], 1 µM produced 100% inhibition.

The same assay, now with this note: Hs68, test compound 1.00 µM; Hs68 cells; substrate testosterone 12 µM; incubated four hours; read-out: % Inhibition.
Consider `O=C1CC[C@@H]2c3ccc(Br)cc3CC[C@H]2N1` (racemic) [Example 2, trans-dl-8-bromo-1,2,3,4,4a,5,6,10b-octahydrobenzo[f]quinolin-3-one], for which the inhibition at 1 µM was found to be 100%.

Turning to `CN1C(=O)CC[C@@H]2c3cc(Cl)c(Cl)cc3CC[C@H]21` (racemic) [Example 5, trans-dl-8,9-dichloro-4-methyl-1,2,3,4,4a,5,6,10b-octahydrobenzo[f]quinolin-3-one], the inhibition at 1 µM was determined as 100%.

As to `Cc1ccc2c(c1)CC[C@@H]1[C@@H]2CCC(=O)N1C` (racemic) [Example 8, trans-dl-4,8-dimethyl-1,2,3,4,4a,5,6,10b-octahydrobenzo[f]quinolin-3-one], the inhibition at 1 µM came to 100%.

On to `Cc1ccc2c(c1)CC[C@H]1[C@@H]2CCC(=O)N1C` (racemic) [Example 9, cis-dl-4,8-dimethyl-1,2,3,4,4a,5,6,10b-octahydrobenzo[f]quinolin-3-one], for which the inhibition at 1 µM worked out at 100%.

For the compound `CN1C(=O)CC[C@@H]2c3ccc(F)cc3CC[C@H]21` (racemic) [Example 10, trans-dl-8-fluoro-4-methyl-1,2,3,4,4a,5,6,10b-octahydrobenzo[f]quinolin-3-one], the inhibition at 1 µM was 100%.

`CN1C(=O)CC[C@@H]2c3ccc(F)cc3CC[C@@H]21` (racemic) [Example 11, cis-dl-8-fluoro-4-methyl-1,2,3,4,4a,5,6,10b-octahydrobenzo[f]quinolin-3-one]: the inhibition at 1 µM was 59.2%.

Consider `O=C1CCC2c3ccc(Cl)cc3CCC2N1` (racemic) [Example 17, trans-dl-8-chloro-1,2,3,4,4a,5,6,10b-octahydrobenzo[f]quinolin-3-one], for which the inhibition at 1 µM stood at 100%.

Take `COc1ccc2c(c1)CCC1NC(=O)CCC21` (racemic) [Example 18, trans-dl-8-methoxy-1,2,3,4,4a,5,6,10b-octahydrobenzo[f]quinolin-3-one]: the inhibition at 1 µM worked out at 69.8%.

Consider `COc1ccc2c(c1)CCC1C2CCC(=O)N1C` (racemic) [Example 19, trans-dl-8-methoxy-4-methyl-1,2,3,4,4a,5,6,10b-octahydrobenzo[f]quinolin-3-one], for which the inhibition at 1 µM was found to be 93.2%.

In the case of `Cc1ccc2c(c1)CCC1NC(=O)CCC21` (racemic) [Example 20, trans-dl-8-methyl-1,2,3,4,4a,5,6,10b-octahydrobenzo[f]quinolin-3-one], the inhibition at 1 µM came out at 86.6%.

As to `O=C1CCC2c3ccccc3CCC2N1` (racemic) [Example 21, trans-dl-1,2,3,4,4a,5,6,10b-octahydrobenzo[f]quinolin-3-one], the inhibition at 1 µM worked out at 100%.

The same assay, now with this note: Hs68, test compound 3.16 µM; Hs68 cells; substrate testosterone 12 µM; incubated four hours.
In turn, `O=C1CCC2c3ccc(F)cc3CCC2N1` (racemic) [Example 15, trans-dl-8-fluoro-1,2,3,4,4a,5,6,10b-octahydrobenzo[f]quinolin-3-one] yielded an inhibition at 3.16 µM of 100%.

Still in this assay, the particulars now being: Hs68, test compound 15.00 µM; Hs68 cells; substrate testosterone 12 µM; incubated four hours.
For `O=C1CCC2c3ccccc3CCC2N1` (racemic) [Example 14, cis-dl-1,2,3,4,4a,5,6,10b-octa-hydrobenzo[f]quinolin-3-one], the inhibition at 15 µM came to 31.7%.

Staying with this assay, now noted: test compound 0.316 µM; Hs68 cells; substrate testosterone 12 µM; incubated four hours.
Broadly, the % Inhibition is the share of the control response that was lost under treatment. With `CC1CC2c3ccc(Cl)cc3CCC2N(C)C1=O` (racemic) [Example 26A, trans-dl-8-chloro-2-(α-methyl)-4-methyl-1,2,3,4,4a,5,6,10b-octahydrobenzo[f]quinolin-3-one], the “% Inhibition” value is 82.56%.

Regarding `CC1CC2c3ccc(Cl)cc3CCC2N(C)C1=O` (racemic) [Example 26B, trans-dl-8-chloro-2-(β-methyl)-4-methyl-1,2,3,4,4a,5,6,10b-octahydrobenzo[f]quinolin-3-one], the “% Inhibition” value was 76.36%.
